Active and inactive are the calls of the source.
How the values were obtained:
Homo sapiens = species on record: Homo sapiens; experiment: Inhibition of 20S proteasome at 25 uM
HT-29 = experiment: Cytotoxicity against human HT-29 cells at 25 uM; type: functional, cell-based
Sus scrofa = species on record: Sus scrofa; experiment: Inhibition of pig pancreatic trypsin using Nalpha-benzoyl-DL-arginine-4-nitroanilide as substrate at 10 uM incubated for 15 mins prior to substrate addition measured ever 30 secs for 30 mins by spectroscopy

C/C=C1/NC(=O)[C@@H](NC(=O)[C@H](CCC(N)=O)NC(=O)[C@@H]2CCCN2C=O)[C@@H](C)OC(=O)[C@H](C(C)C)NC(=O)[C@H](Cc2ccc(O)cc2)N(C)C(=O)[C@H](Cc2ccccc2)N2C(=O)[C@H](CC[C@H]2O)NC1=O
inactive: inhibition (Homo sapiens) | Activity (HT-29) | inhibition (Sus scrofa)

From ChEMBL document CHEMBL2062367, “Stigonemapeptin, an Ahp-containing depsipeptide with elastase inhibitory activity from the bloom-forming freshwater cyanobacterium Stigonema sp” (J Nat Prod, 2012)
